In brackets after ≈: the same amount, converted by molar mass.
Columns and labels:
Type in all cases: functional
Staphylococcus aureus [1] = assay: Antibacterial activity against Staphylococcus aureus KCTC 209 after 24 hrs by broth microdilution method; details: KCTC 209, 24 h
Staphylococcus aureus [2] = assay: Antibacterial activity against Staphylococcus aureus KCTC 503 after 24 hrs by broth microdilution method; details: KCTC 503, 24 h
Staphylococcus aureus [3] = assay: Antibacterial activity against Staphylococcus aureus RN4220 after 24 hrs by broth microdilution method; details: RN4220, 24 h
Escherichia coli = assay: Antibacterial activity against Escherichia coli CCARM 1356 after 24 hrs by broth microdilution method; details: CCARM 1356, 24 h
Staphylococcus aureus [4] = assay: Antibacterial activity against methicillin-resistant Staphylococcus aureus CCARM 3167 clinical isolate after 24 hrs by broth microdilution method; details: CCARM 3167, 24 h
Staphylococcus aureus [5] = assay: Antibacterial activity against methicillin-resistant Staphylococcus aureus CCARM 3506 clinical isolate after 24 hrs by broth microdilution method; details: CCARM 3506, 24 h
Staphylococcus aureus [6] = assay: Antibacterial activity against quinolone-resistant Staphylococcus aureus CCARM 3505 clinical isolate after 24 hrs by broth microdilution method; details: CCARM 3505, 24 h
Staphylococcus aureus [7] = assay: Antibacterial activity against quinolone-resistant Staphylococcus aureus CCARM 3519 clinical isolate after 24 hrs by broth microdilution method; details: CCARM 3519, 24 h
Staphylococcus aureus [8] = assay: Ratio of norfloxacin MIC to compound MIC for methicillin-resistant Staphylococcus aureus CCARM 3167 clinical isolate
Staphylococcus aureus [9] = assay: Ratio of norfloxacin MIC to compound MIC for methicillin-resistant Staphylococcus aureus CCARM 3506 clinical isolate
Staphylococcus aureus [10] = assay: Ratio of norfloxacin MIC to compound MIC for quinolone-resistant Staphylococcus aureus CCARM 3505 clinical isolate
Staphylococcus aureus [11] = assay: Ratio of norfloxacin MIC to compound MIC for quinolone-resistant Staphylococcus aureus CCARM 3519 clinical isolate

SMILES	MIC (Staphylococcus aureus [1]) [µg/mL]	MIC (Staphylococcus aureus [2]) [µg/mL]	MIC (Staphylococcus aureus [3]) [µg/mL]	MIC (Escherichia coli) [µg/mL]	MIC (Staphylococcus aureus [4]) [µg/mL]	MIC (Staphylococcus aureus [5]) [µg/mL]	MIC (Staphylococcus aureus [6]) [µg/mL]	MIC (Staphylococcus aureus [7]) [µg/mL]	Ratio (Staphylococcus aureus [8])	Ratio (Staphylococcus aureus [9])	Ratio (Staphylococcus aureus [10])	Ratio (Staphylococcus aureus [11])
O=C(/C=C/c1ccc(/C=C2\SC(=S)N([C@@H](Cc3ccccc3)C(=O)O)C2=O)cc1)c1ccc2ccccc2c1	8 (≈ 14.6 µM)	8 (≈ 14.6 µM)	2 (≈ 3.64 µM)	> 64	2 (≈ 3.64 µM)	4 (≈ 7.28 µM)	2 (≈ 3.64 µM)	2 (≈ 3.64 µM)	2	2	2	2
O=C(/C=C/c1ccc(/C=C2\SC(=S)N([C@@H](Cc3ccccc3)C(=O)O)C2=O)cc1)c1ccccc1	16 (≈ 32 µM)	8 (≈ 16 µM)	4 (≈ 8.01 µM)	> 64	4 (≈ 8.01 µM)	4 (≈ 8.01 µM)	8 (≈ 16 µM)	4 (≈ 8.01 µM)	2	2	2	2
O=C(/C=C/c1ccc(/C=C2\SC(=S)N([C@@H](Cc3ccccc3)C(=O)O)C2=O)cc1)c1ccccc1Cl	16 (≈ 30 µM)	16 (≈ 30 µM)	2 (≈ 3.74 µM)	> 64	2 (≈ 3.74 µM)	4 (≈ 7.49 µM)	4 (≈ 7.49 µM)	4 (≈ 7.49 µM)	2	2	2	2
O=C(O)[C@H](Cc1ccccc1)N1C(=O)/C(=C\c2ccc(OCc3cccc(F)c3)cc2)SC1=S	16 (≈ 32.4 µM)	16 (≈ 32.4 µM)	4 (≈ 8.1 µM)	> 64	8 (≈ 16.2 µM)	8 (≈ 16.2 µM)	8 (≈ 16.2 µM)	8 (≈ 16.2 µM)	2	2	2	2
O=C(/C=C/c1ccc(/C=C2\SC(=S)N([C@@H](Cc3ccccc3)C(=O)O)C2=O)cc1)c1ccccc1F	16 (≈ 30.9 µM)	16 (≈ 30.9 µM)	4 (≈ 7.73 µM)	> 64	4 (≈ 7.73 µM)	4 (≈ 7.73 µM)	8 (≈ 15.5 µM)	8 (≈ 15.5 µM)	2	2	2	2

From ChEMBL document CHEMBL2086385, “Synthesis and antimicrobial evaluation of L-phenylalanine-derived C5-substituted rhodanine and chalcone derivatives containing thiobarbituric acid or 2-thioxo-4-thiazolidinone” (2012)
